One compound from PMC12250302, “Synthesis, Antimicrobial Activities, and Model of Action of Novel Tetralone Derivatives Containing Aminoguanidinium Moiety” (International Journal of Molecular Sciences, 2025) can be followed below.

The subject of data set [1] is MRSA-2 biofilm. Description: Biofilm formation inhibition assay (crystal violet). The format is cell-based, Staphylococcus aureus. The settings on record: MRSA-2. On the procedure:
The effect of 2D on the biofilm formation of MRSA was evaluated. MRSA-2 was cultured in MH broth for a period of 3–5 h, after which it was diluted to a density of 1 × 10^6 CFU/mL with MH broth. […] After the removal of the suspended bacteria, the well plates were washed thrice with PBS. Then, 150 μL of methanol was added and fixed for 30 min. Subsequent to air-drying, 150 μL of a 0.1% crystal violet aqueous solution was added. Following a 15 min staining period, the excess crystal violet was removed by rinsing with flowing water. Finally, 150 μL of anhydrous ethanol was added and the mixture was incubated for 20 min. The optical density at 575 nm was detected.

In data set [2] the test system is MRSA-2. In words: Bactericidal time-kill kinetics assay. Type of data set: cell-based, Staphylococcus aureus. The settings on record: 2, 4 and 8 µg/mL, 0-24 h. On the procedure:
(§1) S. aureus (ATCC 29213) and MRSA-2 were cultivated in MH broth until the logarithmic growth phase and then diluted to 1 × 10^7 CFU/mL, respectively. […] After a specified time interval (0, 1, 2, 4, 8, 12, and 24 h), the culture suspension was serially diluted in 0.9% saline over a concentration range from 10^−1 to 10^−9. A volume of 100 μL of the obtained diluent and culture solution was dispensed onto a sterile MH agar plate. The plate was subsequently cultured at 37 °C for a duration of 24 h. The total number of colonies was enumerated and expressed as log10(CFU/mL).

The next data set relates to S. aureus (ATCC 29213). Description: Bactericidal time-kill kinetics assay. The format is cell-based, Staphylococcus aureus. The settings on record: 2, 4 and 8 µg/mL, 0-24 h. On the procedure:
as §1

For another data set, the system named is MRSA-1. Description: MIC and MBC testing, broth microdilution. The format is cell-based, Staphylococcus aureus. The settings on record: Staphylococcus aureus, MRSA-1. The method in brief: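 Triplicate broth microdilution: MH broth, serial 2× dilution of compounds dissolved in DMSO, 1 × 10^6 CFU/mL bacteria grown to log phase, 18 h at 37 °C, followed by MBC determination.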

Data set [3] deals with MRSA-2 biofilm. Description: Biofilm elimination assay (crystal violet). Type of data set: cell-based, Staphylococcus aureus. The settings on record: 0.25 μg/mL, 24 h. On the procedure:
The ability of 2D to eliminate biofilm was evaluated. MRSA-2 (1 × 10^6 CFU/mL) was incubated in 96-well plates for 24 h until biofilm formation. The planktonic bacteria were discarded and washed thrice with PBS. […] According to the above method, the OD575 nm value was detected after the following steps: PBS washing, methanol fixation, crystal violet staining, and ethanol incubation.

Data set [4] relates to MRSA-2. In words: Fluorescence microscopy assay (DAPI/PI). The settings on record: vancomycin 4 µg/mL; 2D 4 and 8 μg/mL; 2 h. The format is cell-based, Staphylococcus aureus. On the procedure: MRSA-2 was cultivated to the logarithmic growth phase, then washed with PBS and resuspended in PBS until the concentration of bacterial suspension reached 1 × 10^8 CFU/mL. […] Thereafter, the samples were incubated with DAPI (10 μM) and PI (10 μM) in the dark for 15 min. The bacterial cells were then subjected to observation under a fluorescence microscope. DMSO served as the negative controls.

Data set [5] deals with MRSA-2. The format is cell-based, Staphylococcus aureus. The settings on record: not told. On the procedure:
MRSA-2 bacterial precipitates in the logarithmic growth phase were collected by centrifugation, washed, and resuspended in PBS to a density of 1 × 10^6 CFU/mL. PI (10 μM, 40 μL) was added to a black 96-well plate along with 150 μL of bacterial suspension. After an incubation period of 30 min, fluorescence was detected at excitation wavelengths of 535 nm and emission wavelengths of 617 nm at 5 min intervals until a stable state was reached.

Data set [6] deals with MRSA-2. In words: Membrane depolarization assay, DiSC3(5). Type of data set: cell-based, Staphylococcus aureus. The settings on record: 2, 4, and 8 μg/mL. On the procedure:
MRSA-2 was cultivated in MH broth, with a final concentration of 1 × 10^8 CFU/mL. After centrifugation, the supernatant was discarded. The bacterial precipitate was washed thrice and resuspended with PBS. Subsequently, the bacterial resuspension (180 μL) and the DiSC5 (10 μL, 3 μM) were incubated in the dark for 30 min. The fluorescence intensity was measured at 2 min intervals for a period of 10 min. After the fluorescence intensity was stabilized, 10 μL of 2D (final concentrations of 1, 2, 4, and 8 μg/mL) was added, respectively. The fluorescence intensity was measured at 2 min intervals for a total duration of 30 min. The excitation/emission wavelength was 622/670 nm.

The test system of data set [7] is human liver cell line (HepG2). In words: Cytotoxicity, CCK-8 method. The format is cell-based. On the procedure:
(§2) The CCK-8 method was used to evaluate the toxicity of 2D to four cell lines (lung cancer cell line (A549), human liver cell line (HepG2), human embryonic kidney 293T cells (HEK 293-T), and human colon adenocarcinoma cell line (Caco-2)). Cells with a density of 1 × 10^5 cells/well were added to 96-well plates and then incubated for 24 h at 5% CO2 and 37 °C. Subsequently, after treatment with different concentrations of 2D for 24 h, the CCK-8 kit was added according to the prescribed procedure. Following an incubation at 37 °C for 0.5 h, the absorbances at 450 nm were detected. The […] was calculated according to the following formula:Cytotoxic (%) = (Atest/Acontrol) × 100%(2)

The test system of data set [8] is lung cancer cell line (A549). In words: Cytotoxicity, CCK-8 method. Type of data set: cell-based. On the procedure:
as §2

Data set [9] deals with human colon adenocarcinoma cell line (Caco-2). In words: Cytotoxicity, CCK-8 method. The format is cell-based. On the procedure:
as §2

The subject of data set [10] is human embryonic kidney 293T cells (HEK 293-T). Description: Cytotoxicity, CCK-8 method. Type of data set: cell-based. On the procedure: as §2

Values after ≈ are worked out from the molar mass of the structure shown.

For `[H]/N=C(\N)NN=C1CCCc2cc(OCCCCCCC)ccc21` [Compound 2D, (E)-2-(6-(heptyloxy)-3,4-dihydronaphthalen-1(2H)-ylidene)hydrazine-1-carboximidamide], in the data set with MRSA-2 biofilm [1] (1 μg/mL (1MIC), 24 h), the “reduction of biofilm formation” value is listed as “more than 92%”. Also, the “inhibition of biofilm formation” value with MRSA-2 biofilm [1] (2–32 μg/mL (2-32MIC)) is on record as “almost completely inhibited the formation of biofilm”. Further, the inhibition at 0.25 µg/mL in the data set on MRSA-2 biofilm [1] (Staphylococcus aureus, 0.25 μg/mL (1/4MIC), 24 h, read-out: inhibition rate of biofilm formation) is approximately 18.5%. Besides, the inhibition at 0.5 µg/mL in the data set with MRSA-2 biofilm [1] (Staphylococcus aureus, 0.5 μg/mL (1/2MIC), 24 h, read-out: inhibition rate of biofilm formation) was approximately 37.8%. The time-kill response entry is “concentration-dependent and time-dependent bactericidal response” in the data set on MRSA-2 [2]; “concentration-dependent and time-dependent bactericidal response” with S. aureus (ATCC 29213). Further, the minimal inhibitory concentration (MIC) in the data set with MRSA-1 (18 h, read-out: MIC) stood at 1 µg/mL (≈ 3.16 µM). Further, the MBC in the data set on MRSA-1 (read-out: MBC) is 16 µg/mL (≈ 50.6 µM). The biofilm elimination rate in the data set on MRSA-2 biofilm [3] came out at 21.4%. In addition, in the data set with MRSA-2 [4], the “PI red fluorescence (damaged membranes)” value is recorded as “a marked tendency to emit red fluorescence”. For the same compound, in the data set with MRSA-2 [5], the “PI fluorescence intensity (inner membrane permeability)” value is given as “significantly enhanced”. Besides, in the data set with MRSA-2 [6], the “DiSC3(5) fluorescence intensity (depolarization)” value is “increased instantaneously”. Moreover, the IC50 in data set [7] (Homo sapiens, HepG2, 24 h, CCK-8) is 6 µg/mL (≈ 19 µM); in [8] (Homo sapiens, A549, 24 h, CCK-8), 3.57 µg/mL (≈ 11.3 µM); in data set [9] (Homo sapiens, CaCo-2, 24 h, CCK-8), 9.86 µg/mL (≈ 31.2 µM); in data set [10] (Homo sapiens, HEK 293-T, 24 h, CCK-8), 13.1 µg/mL (≈ 41.4 µM). Moreover, the “Selectivity index (SI)” value in data set [7] (SI = IC50 (HepG2)/MIC ATCC 29213) stood at 12.00; in data set [8] (SI = IC50 (A549)/MIC ATCC 29213), 7.14; in data set [9] (SI = IC50 (CaCo-2)/MIC ATCC 29213) it was 19.72; in data set [10] (SI = IC50 (HEK 293-T)/MIC ATCC 29213) it was 26.18.
